Results published in US10221153B2, “Dibenzothiophene compounds” (Saint Louis University, priority 2017, dated 2019).
“Also recorded” adds a separate entry of the source. Where two headings read alike, the source gives them in different places.

What was measured:
[1] = Quantum yield by single-point method; conditions: single-point method in EtOH
[2] = Photophysical analysis: absorption, excitation and emission at 10 μM (Example 5); assay type: physicochemical; conditions: for λabs / λem / Stokes Shift: acetonitrile at 10 μM; for λex (excitation wavelength): acetonitrile at 10 μM (footnotes a,b); for Stokes Shift: calculated from excitation wavelength; for λex: footnotes a,g: acetonitrile at 10 μM / EtOH at 10 μM
Protocol: (§1) All data were collected on a SHIMAZDU Spectrofluorometer RF-5301PC. Solutions of the respective compounds were prepared in acetonitrile at approximately 1 mM concentration. Solutions (4 mL) were added to a freshly washed quartz cuvette for measurements. The excitation wavelength was varied between 270 nm and 390 nm in 20 nm intervals until the greatest intensity emission was detected. The emission spectra ranges started at 20 nm to the red of the chosen excitation wavelength up to 780 nm. Scan speed was set at “Very Fast” with both the slit widths set to 1.5 mm.
(§2) All data were collected on a SHIMAZDU Spectrofluorometer RF-5301PC. Solutions of the respective compounds were prepared in acetonitrile at approximately 1 mM concentration. Solutions (4 mL) were added to a freshly washed quartz cuvette for measurements. The monitored emission wavelength was set using the high intensity emission from the respective molecule. The scanning range was from 220 nm through 770 nm. Scan speed was set at “Very Fast” with both the slit widths set to 1.5 mm.
Excitation/emission data for compounds 6b, 7b, 8b, 15b, 16b, and 17b were collected using the methods described in Example 3 but using a lower concentration of acetonitrile (10 μM). Compounds 15b, 16b and 17b and their parent molecules (6b, 7b and 8b) all luminesce in the visible range and their optical properties are described in Table 4. […] The wavelength of λex for the excitation scan corresponds to excitation to S1, which leads to emission. This λex for all the molecules were red shifted, or shifted to the direction of longer wavelengths, from the peak absorption by an average 40 nm.

[3] = as above; assay type: physicochemical; conditions: EtOH at 10 μM
[4] = Emission and excitation scans on spectrofluorometer, approximately 1 mM in acetonitrile (Example 3); assay type: physicochemical
Protocol: General Procedure for Emission and Excitation Data Collection:
as §1, §2

[5] = tested on: HeLa human cervical carcinoma cell line; test: Cell imaging of HeLa cells incubated with compound, fluorescence microscopy; assay type: cell-based; conditions: 1 μM; for tracking with chromosomes during mitosis / luminescence intensity in cells / location of luminescence in the cell: 120 min; for luminescence intensity in cells: excitation 350 nm, emission approximately 400 nm; for location of luminescence in the cell: merged bright field and UV images
Protocol: HeLa human cervical carcinoma cell line was obtained from ATCC (Manassas, Va.). The cells were cultured in a humidified incubator at 5% CO2 and 37° C. The cell line was grown in D-MEM (Invitrogen) high glucose supplemented with 10.0% fetal bovine serum (Invitrogen, Carlsbad, Calif.) and 1.0% Penicillin/Streptomycin (Invitrogen, Carlsbad, Calif.) for an environment suitable for cell growth. The culture was sub-cultured every three days to maintain normal cell growth.
Sterile glass PDL coated #1.5 cover slips (NeuVitro), pre-incubated with culture medium, were placed in sterile 6-well plates. Single cell suspension of the HeLa (cervical cancer cells taken from patient Henrietta Lacks) cell line was prepared at 5×10^4 cells ml^−1 in the appropriate medium. Volumes of 2.0 mL were pipetted into each of the wells containing the coverslips. The 6-well plate was left overnight at 37.0° C. in a 5.0% CO2 incubator. Following the overnight incubation, the plate was aspirated dry and then fresh culture medium, containing the drug (at 1.0 μM and 0.10% DMSO) in a volume of 2.0 mL, was gently pipetted onto the cell monolayers attached to the glass cover slips. Cells on the cover slips were exposed to the drug for approximately 2 hours. Cells were washed with PBS and treated with 4.0% paraformaldehyde solution prepared in PBS, incubated for 30 minutes at room temperature for […]. Several washes with PBS were completed to ensure excess solution was rinsed away. Glass cover slips were removed and mounted on slides with ProLong Gold Antifade Mountant (ThermoFisher Scientific). The specimen was dried for several minutes and sealed with clear nail polish before visualized under a microscope
Cell Image Captures: All images were captured with a Leica DM 4000 B microscope with a DFC3000G camera (Leica Microsystems, Germany) and 63× oil immersion lens. HeLa cells were staged according to the method above. Leica LASX Core Software (Leica Microsystems, Germany) was used to acquire the images.
Stained cells were clearly observed by exciting the cells with a broadly emitting lamp using DAPI filter set. Luminescence was observed within the cell bodies of the HeLa cells upon excitation of the UV wavelengths. The excitation wavelength was 350 nm and the emission wavelength was approximately 400 nm. FIG. 14 depicts representative images of HeLa cervical cancer cell lines incubated with Compounds 16b, 15b, and 17b (1 μM) for 120 min. Bright field images of cells incubated with compounds 16b, 15b, and 17b are shown in Panels A, D, and G, respectively. Luminescence from each compound (16b, 15b, and 17b) is shown in Panels B, E, and H, respectively, with UV laser radiation.

HeLa cells = test: Anti-proliferation (MTS) assay, HeLa cells, 72 hours; assay type: cell-based, human; conditions: 1 nM to 100 μM
Protocol: To determine whether long-term exposure to each compound could be toxic to cells, Hela cells were treated with varying concentrations of Compounds 16b, 15b and 17b for 72 hours. An anti-proliferation protocol was carried out by testing chosen compounds on the growth of the human cervical cancer cell lines. HeLa cells were cultured in their respective media supplemented with 10.0% FBS (fetal bovine serum) and 1.0% Pen/Strep. Cells (1,000 cells/100 μL per well) were plated in a 96-well culture plate (TC treated, Greiner) and incubated for 24 h. 50 μL (DMSO <1%) of the compound at final concentrations 100 μM, 10 μM, 1 μM, 100 nM, 10 nM, and 1 nM were added to the appropriate wells. Triplicates wells were performed for each compound, on three identical plates.
After incubation of the cells, at 37° C. in a humidified atmosphere of 5% CO2 for 72 hours, the cells were stained and incubated with MTS (3-(4,5-dimethylthiazol-2-yl)-5-(3-carboxymethoxyphenyl)-2-(4-sulfophenyl)-2H-tetrazolium) reagent in the presence of PMS (phenazine methosulfate) reagent for 2 hours to determine cell viability. An MTS assay is based on the reduction of the MTS tetrazolium compound by viable cells to generate a colored formazan dye that is soluble in cell culture media. The absorbance of each well was taken at 490 nm using a multimode plate reader (FlexStation 3, Molecular Devices, San Diego, Calif.). GraphPad Prism was used to analyze transposed data to determine the percent viability. […] Each compound was tested in at least triplicate.

[6] = cell footnote a: acetonitrile at 10 μM

Structure (SMILES) | φ (quantum yield) [1] | log εex (molar extinction coefficient at excitation wavelength) [2] [M^−1 cm^−1] | λabs [2] [nm] | λem [2] [nm] | λex (excitation wavelength) [2] [nm] | Stokes Shift [2] [nm] | λex [2] [nm] | log εmax (maximum molar extinction coefficient) [3] [M^−1 cm^−1] | λem [3] [nm] | emission wavelength (emitted at) [4] | excitation wavelength (excited at) [4] [nm] | luminescence colour [4] | log εex (molar extinction coefficient at excitation wavelength) [2, 6] | log εmax (maximum molar extinction coefficient) [2, 6] | tracking with chromosomes during mitosis [5] | luminescence intensity in cells [5] | location of luminescence in the cell [5] | cytotoxicity / decrease in cell viability (HeLa cells) | effect on cell morphology ([5]; FIG. 14 panel G)
O=S(=O)(Oc1ccccc1)c1ccc2c(c1)-c1cc(-c3cccc4ccccc34)ccc1S2(=O)=O [Compound 7b, phenyl 8-(naphthalen-1-yl)dibenzo[b,d]thiophene-2-sulfonate 5,5-dioxide] | 0.15 | 4.51 | 243 | 492 | 274 | 218 | 274 | 4.79 | 486 | 499 nm | 367 | luminesced in either a deep blue or near blue wavelength | – | – | – | – | – | – | –
O=S(=O)(Oc1ccccc1)c1ccc2c(c1)c1cc(-c3ccc(-c4ccccc4)cc3)ccc1[s+]2[O-] (stereo not shown) [Compound 8a, phenyl 8-([1,1′-biphenyl]-4-yl)dibenzo[b,d]thiophene-2-sulfonate 5-oxide] | – | – | – | – | – | – | – | – | – | 477 nm | 365 | luminesced in either a deep blue or near blue wavelength | – | – | – | – | – | – | –
O=S(=O)(Oc1ccccc1)c1ccc2c(c1)-c1cc(-c3ccccc3)ccc1S2(=O)=O [Compound 6b, phenyl 8-phenyldibenzo[b,d]thiophene-2-sulfonate 5,5-dioxide] | 0.05 | 4.45 | 238 | 426 | 274 | 152 | 275 | 4.69 | 434 | about 437 nm | 344 | luminesced in either a deep blue or near blue wavelength | – | – | – | – | – | – | –
O=S(=O)([O-])c1ccc2c(c1)-c1cc(-c3ccc(-c4ccccc4)cc3)ccc1S2(=O)=O.[Na+] [Compound 16b, sodium 8-([1,1′-biphenyl]-4-yl)dibenzo[b,d]thiophene-2-sulfonate 5,5-dioxide] | 0.29 | – | 246 | 412 | 287 | 125 | 284 | – | 422 | – | – | – | 2.48^a M^−1 cm^−1 | 4.75^a M^−1 cm^−1 | track with chromosomes during mitosis | intense luminescence | luminescence is clearly identified within the nucleus of the cell | begins to show some degree of toxicity at 100 μM; also recorded: low cytotoxicity | –
O=S(=O)(Oc1ccccc1)c1ccc2c(c1)-c1cc(-c3ccc(-c4ccccc4)cc3)ccc1S2(=O)=O [Compound 8b, phenyl 8-([1,1′-biphenyl]-4-yl)dibenzo[b,d]thiophene-2-sulfonate 5,5-dioxide] | 0.59 | 4.17 | 243 | 485 | 283 | 202 | 286 | 4.59 | 478 | 475 nm | 366 | luminesced in either a deep blue or near blue wavelength | – | – | – | – | – | – | –
O=S(=O)([O-])c1ccc2c(c1)-c1cc(-c3cccc4ccccc34)ccc1S2(=O)=O.[Na+] [Compound 17b, sodium 8-(naphthalen-1-yl)dibenzo[b,d]thiophene-2-sulfonate 5,5-dioxide] | 0.55 | 4.36 | 250 | 421 | 274 | 147 | 274 | 4.67 | 428 | – | – | – | – | – | – | slight luminescence | luminescence is clearly identified within the nucleus of the cell | do not show any decrease in cell viability at any concentration tested; also recorded: no observed cytotoxicity | seemed to influence the morphology of HeLa cells
O=S(=O)(Oc1ccccc1)c1ccc2c(c1)c1cc(-c3cccc4ccccc34)ccc1[s+]2[O-] (stereo not shown) [Compound 7a, phenyl 8-(naphthalen-1-yl)dibenzo[b,d]thiophene-2-sulfonate 5-oxide] | – | – | – | – | – | – | – | – | – | – | – | luminesced in either a deep blue or near blue wavelength | – | – | – | – | – | – | –
O=S(=O)([O-])c1ccc2c(c1)-c1cc(-c3ccccc3)ccc1S2(=O)=O.[Na+] [Compound 15b, sodium 8-phenyldibenzo[b,d]thiophene-2-sulfonate 5,5-dioxide] | 0.07 | 4.4 | 248 | 371 | 268 | 103 | 274 | 4.67 | 380 | – | – | – | – | – | track with chromosomes during mitosis | intense luminescence | luminescence is clearly identified within the nucleus of the cell | do not show any decrease in cell viability at any concentration tested; also recorded: low cytotoxicity | –
